Set-up in all cases: key: ‘X’ means highly active; ‘+’ means moderately active; ‘−’ means low activity
Experiment [1] concerns A. gossypii. Kind of experiment: Foliar application (contact test) with aphids. The class given is in vivo, Aphis gossypii. Particulars: 100 ppm formulation sprayed to runoff on aphid-infested cotton plants, dead aphids counted three days after treatment. The text has this:
Foliar Application (Contact Test) with Aphids Aphid-infested cotton plants were placed on a revolving turntable, and sprayed to runoff with a 100 ppm formulation of the selected compound of formula (I). The treated, A. gossypii-infested plants were held for three days after treatment, after which the dead aphids were counted.

Experiment [2] has as its system Schizaphis graminum. Nature of the experiment: Soil drench test (systemic activity), greenbug on sorghum plants. The note with it: 10.0 ppm soil concentration by weight, counts at 5 DAT vs untreated control. The class given is in vivo. The text has this:
(§1) The Soil Drench Test (Systemic Activity) Cotton and sorghum plants were established in pots. One day prior to treatment, each pot was infested with about 25 aphids of a mixed population. Cotton plants were infested with aphids and sorghum plants were infested with the greenbug. The selected compound of formula (I) was applied to the soil surface in a dilution that delivered the equivalent of 10.0 ppm soil concentration by weight. Aphid counts were obtained at 5 DAT (=days after treatment). The number of aphids on the treated plants was compared to the number of those on the untreated control plants.

Experiment [3] deals with Musca domestica. Nature of the experiment: Housefly bait/contact test. The class given is in vivo. The note with it: 50 ppm in sugar water bait solution, adult houseflies, mortality after 24 hours. The text has this:
The Housefly Bait/Contact Test About 25 four to six-day-old adult houseflies were anesthetized and placed in a cage with a sugar water bait solution containing the compound. The concentration of the selected compound of formula (I) in the bait solution was 50 ppm.

For experiment [4], the system named is Aphis gossypii. Kind of experiment: Soil drench test (systemic activity), aphids on cotton plants. The class given is in vivo. Particulars: 10.0 ppm soil concentration by weight, aphid counts at 5 DAT vs untreated control.
Text: as §1

With `CSCC1COC(C)(c2nn(-c3c(Cl)cc(C(F)(F)F)cc3Cl)c(N)c2SC)O1` (stereo not shown) [Compound 27], in experiment [1], the “Foliar activity on aphids” value is “−”. In experiment [2], the “Systemic activity on greenbugs” value is “+”. Besides, the “Activity on house flies by contact” value in experiment [3] was “X”. The “Systemic activity on aphids” value in experiment [4] is on record as “X”.

`CSc1c(C2(C)OCC(CO)O2)nn(-c2c(Cl)cc(C(F)(F)F)cc2Cl)c1N` (stereo not shown) [Compound 6]: the “Foliar activity on aphids” value in experiment [1] was “−”. For the same compound, the “Systemic activity on greenbugs” value in experiment [2] is “X”. Moreover, the “Activity on house flies by contact” value in experiment [3] is given as “−”. Also, the “Systemic activity on aphids” value in experiment [4] is “+”.

Regarding `C[S+]([O-])c1c(C2(C)NCCS2)nn(-c2c(Cl)cc(C(F)(F)F)cc2Cl)c1N` (stereo not shown) [Compound 15, 5-amino-1-[2,6-dichloro-4-(trifluoromethyl)phenyl]-3-(2-methylthiazolidine-2-yl)-4-methylsulfinyl-1H-pyrazole], in experiment [1], the “Foliar activity on aphids” value is “−”. Further, the “Systemic activity on greenbugs” value in experiment [2] is recorded as “X”. For the same compound, in experiment [3], the “Activity on house flies by contact” value is on record as “X”. Moreover, the “Systemic activity on aphids” value in experiment [4] is recorded as “X”.

For the compound `CC1(c2nn(-c3c(Cl)cc(C(F)(F)F)cc3Cl)c(N)c2S(C)(=O)=O)OCCO1` [Compound 5], in experiment [1], the “Foliar activity on aphids” value is “X”. Moreover, in experiment [2], the “Systemic activity on greenbugs” value is listed as “X”. Further, the “Activity on house flies by contact” value in experiment [3] is “X”. Also, in experiment [4], the “Systemic activity on aphids” value is recorded as “X”.

As for `CC1(c2nn(-c3c(Cl)cc(C(F)(F)F)cc3Cl)c(N)c2S(C)(=O)=O)SCC[S+]1[O-]` (stereo not shown) [Compound 21], in experiment [1], the “Foliar activity on aphids” value was “−”. For the same compound, the “Systemic activity on greenbugs” value in experiment [2] is “−”. Besides, the “Activity on house flies by contact” value in experiment [3] is listed as “X”. In addition, the “Systemic activity on aphids” value in experiment [4] is recorded as “−”.

With `CSc1c(C2(C)OCCCO2)nn(-c2c(Cl)cc(C(F)(F)F)cc2Cl)c1N` [Compound 12], in experiment [1], the “Foliar activity on aphids” value is given as “X”. Further, the “Systemic activity on greenbugs” value in experiment [2] is recorded as “X”. Moreover, the “Activity on house flies by contact” value in experiment [3] is listed as “X”. For the same compound, the “Systemic activity on aphids” value in experiment [4] is listed as “X”.

Consider `CSc1c(C2(C)OCC(CO)(CO)CO2)nn(-c2c(Cl)cc(C(F)(F)F)cc2Cl)c1N` [Compound 14], for which the “Foliar activity on aphids” value in experiment [1] was “−”. Besides, the “Activity on house flies by contact” value in experiment [3] is reported as “−”. For the same compound, the “Systemic activity on aphids” value in experiment [4] is on record as “−”.

Regarding `CSc1c(C2(C)SCCS2)nn(-c2c(Cl)cc(C(F)(F)F)cc2Cl)c1N` [Compound 16, 5-amino-1-[2,6-dichloro-4-(trifluoromethyl)phenyl]-3-(2-methyl-1,3-dithiolane-2-yl)-4-methylthio-1H-pyrazole], the “Foliar activity on aphids” value in experiment [1] is given as “+”. Also, in experiment [2], the “Systemic activity on greenbugs” value is “X”. The “Activity on house flies by contact” value in experiment [3] is recorded as “X”. In experiment [4], the “Systemic activity on aphids” value is “−”.

`CNc1c(S(C)(=O)=O)c(C2(C)OCCO2)nn1-c1c(Cl)cc(C(F)(F)F)cc1Cl` [Compound 35]: in experiment [1], the “Foliar activity on aphids” value was “X”. Also, the “Systemic activity on greenbugs” value in experiment [2] is on record as “X”. Moreover, the “Activity on house flies by contact” value in experiment [3] is “X”. The “Systemic activity on aphids” value in experiment [4] was “X”.

Turning to `CC1COC(C)(c2nn(-c3c(Cl)cc(C(F)(F)F)cc3Cl)c(N)c2S(C)(=O)=O)O1` (stereo not shown) [Compound 8], the “Foliar activity on aphids” value in experiment [1] was “X”. In experiment [2], the “Systemic activity on greenbugs” value is “X”. Moreover, the “Activity on house flies by contact” value in experiment [3] was “X”. Further, the “Systemic activity on aphids” value in experiment [4] is reported as “X”.

In the case of `CCNc1c([S+](C)[O-])c(C2(C)OCCO2)nn1-c1c(Cl)cc(C(F)(F)F)cc1Cl` (stereo not shown) [Compound 37], the “Foliar activity on aphids” value in experiment [1] is “X”. For the same compound, in experiment [3], the “Activity on house flies by contact” value is on record as “X”. Besides, the “Systemic activity on aphids” value in experiment [4] is recorded as “X”.

Take `CCNc1c(S(C)(=O)=O)c(C2(C)OCCO2)nn1-c1c(Cl)cc(C(F)(F)F)cc1Cl` [Compound 34]: the “Foliar activity on aphids” value in experiment [1] was “X”. In experiment [2], the “Systemic activity on greenbugs” value is given as “X”. Further, the “Activity on house flies by contact” value in experiment [3] was “X”. In experiment [4], the “Systemic activity on aphids” value is listed as “X”.

As to `C[S+]([O-])CC1COC(C)(c2nn(-c3c(Cl)cc(C(F)(F)F)cc3Cl)c(N)c2[S+](C)[O-])O1` (stereo not shown) [Compound 29], the “Foliar activity on aphids” value in experiment [1] is reported as “X”. Moreover, the “Systemic activity on greenbugs” value in experiment [2] is “−”. For the same compound, the “Activity on house flies by contact” value in experiment [3] is listed as “X”. The “Systemic activity on aphids” value in experiment [4] is reported as “X”.

Turning to `CC1(c2nn(-c3c(Cl)cc(C(F)(F)F)cc3Cl)c(N)c2S(C)(=O)=O)OCCS1` (stereo not shown) [Compound 23, 5-amino-1-[2,6-dichloro-4-(trifluoromethyl)phenyl]-3-(2-methyl-1,3-oxathiolane-2-yl)-4-methylsulfonyl-1H-pyrazole], the “Activity on house flies by contact” value in experiment [3] is “−”. Further, the “Systemic activity on aphids” value in experiment [4] is given as “X”.

Turning to `CC1(c2nn(-c3c(Cl)cc(C(F)(F)F)cc3Cl)c(N)c2S(C)(=O)=O)SCCS1` [Compound 17], in experiment [1], the “Foliar activity on aphids” value was “+”. Moreover, in experiment [2], the “Systemic activity on greenbugs” value is “X”. The “Activity on house flies by contact” value in experiment [3] is reported as “X”. For the same compound, in experiment [4], the “Systemic activity on aphids” value is reported as “X”.

`CC1(c2nn(-c3c(Cl)cc(C(F)(F)F)cc3Cl)c(N)c2S(C)(=O)=O)S(=O)(=O)CCS1(=O)=O` [Compound 25, 5-amino-1-[2,6-dichloro-4-(trifluoromethyl)phenyl]-3-(2-methyl-1,1,3,3-tetraoxo-1,3-dithiolane-2-yl)-4-methylsulfonyl-1H-pyrazole]: the “Activity on house flies by contact” value in experiment [3] was “−”. The “Systemic activity on aphids” value in experiment [4] is given as “−”.

Take `CCNc1c(SC)c(C2(C)OCCO2)nn1-c1c(Cl)cc(C(F)(F)F)cc1Cl` [Compound 36]: the “Foliar activity on aphids” value in experiment [1] was “+”. Also, the “Activity on house flies by contact” value in experiment [3] is “X”. In experiment [4], the “Systemic activity on aphids” value is given as “X”.

Turning to `CC1(c2nn(-c3c(Cl)cc(C(F)(F)F)cc3Cl)c(N)c2S(C)(=O)=O)OCCCO1` [Compound 13], the “Foliar activity on aphids” value in experiment [1] is recorded as “X”. Besides, the “Systemic activity on greenbugs” value in experiment [2] was “X”. In experiment [3], the “Activity on house flies by contact” value is listed as “X”.

`CSCC1COC(C)(c2nn(-c3c(Cl)cc(C(F)(F)F)cc3Cl)c(N)c2S(C)(=O)=O)O1` (stereo not shown) [Compound 30]: the “Activity on house flies by contact” value in experiment [3] is on record as “−”. Moreover, in experiment [4], the “Systemic activity on aphids” value is recorded as “X”.

With `CNc1c(SC)c(C2(C)OCCO2)nn1-c1c(Cl)cc(C(F)(F)F)cc1Cl` [Compound 38], the “Systemic activity on greenbugs” value in experiment [2] was “X”. Moreover, in experiment [3], the “Activity on house flies by contact” value is listed as “X”. Also, the “Systemic activity on aphids” value in experiment [4] was “X”.

For `COC(C)(OC)c1nn(-c2c(Cl)cc(C(F)(F)F)cc2Cl)c(N)c1SC` [Compound 1, 5-amino-1-[2,6-dichloro-4-(trifluoromethyl)phenyl]-3-[(1,1-dimethoxy)ethyl]-4-methylthio-1H-pyrazole], the “Foliar activity on aphids” value in experiment [1] was “+”. In experiment [2], the “Systemic activity on greenbugs” value is recorded as “X”. Further, the “Activity on house flies by contact” value in experiment [3] is on record as “X”. Moreover, the “Systemic activity on aphids” value in experiment [4] is listed as “X”.

As for `C[S+]([O-])c1c(C2(C)OCCO2)nn(-c2c(Cl)cc(C(F)(F)F)cc2Cl)c1N` (stereo not shown) [Compound 10, 5-amino-1-[2,6-dichloro-4-(trifluoromethyl)phenyl]-3-(2-methyl-1,3-dioxolane-2-yl)-4-methylsulfinyl-1H-pyrazole], the “Foliar activity on aphids” value in experiment [1] is on record as “X”. Moreover, the “Systemic activity on greenbugs” value in experiment [2] is listed as “X”. Moreover, the “Activity on house flies by contact” value in experiment [3] was “X”. Besides, in experiment [4], the “Systemic activity on aphids” value is given as “X”.

As for `C[S+]([O-])c1c(C2(C)SCCS2)nn(-c2c(Cl)cc(C(F)(F)F)cc2Cl)c1N` (stereo not shown) [Compound 18], in experiment [1], the “Foliar activity on aphids” value is reported as “X”. For the same compound, in experiment [2], the “Systemic activity on greenbugs” value is on record as “+”. The “Activity on house flies by contact” value in experiment [3] is given as “X”. Further, the “Systemic activity on aphids” value in experiment [4] is given as “−”.

With `CNc1c([S+](C)[O-])c(C2(C)OCCO2)nn1-c1c(Cl)cc(C(F)(F)F)cc1Cl` (racemic) [Compound 39], the “Systemic activity on greenbugs” value in experiment [2] was “X”. Also, the “Activity on house flies by contact” value in experiment [3] is “−”. In experiment [4], the “Systemic activity on aphids” value was “+”.

Take `COC(C)(OC)c1nn(-c2c(Cl)cc(C(F)(F)F)cc2Cl)c(N)c1[S+](C)[O-]` (stereo not shown) [Compound 2]: the “Foliar activity on aphids” value in experiment [1] is given as “X”. Besides, the “Systemic activity on greenbugs” value in experiment [2] is on record as “X”. Also, the “Activity on house flies by contact” value in experiment [3] is reported as “X”. The “Systemic activity on aphids” value in experiment [4] is given as “+”.

In the case of `CSc1c(C2(C)OCC(C)O2)nn(-c2c(Cl)cc(C(F)(F)F)cc2Cl)c1N` (stereo not shown) [Compound 4], the “Foliar activity on aphids” value in experiment [1] is given as “X”. For the same compound, the “Systemic activity on greenbugs” value in experiment [2] is on record as “X”. Also, the “Activity on house flies by contact” value in experiment [3] is “X”. Also, the “Systemic activity on aphids” value in experiment [4] is “X”.

Consider `C[S+]([O-])CC1COC(C)(c2nn(-c3c(Cl)cc(C(F)(F)F)cc3Cl)c(N)c2S(C)(=O)=O)O1` (stereo not shown) [Compound 31], for which the “Foliar activity on aphids” value in experiment [1] is “+”. Also, in experiment [3], the “Activity on house flies by contact” value is given as “+”. Moreover, the “Systemic activity on aphids” value in experiment [4] is “X”.

Take `CSc1c(C2(C)OCCS2)nn(-c2c(Cl)cc(C(F)(F)F)cc2Cl)c1N` (stereo not shown) [Compound 24]: the “Systemic activity on greenbugs” value in experiment [2] is listed as “X”. Also, the “Systemic activity on aphids” value in experiment [4] is on record as “X”.

These data come from patent publication US6395760B1, “Pesticidal 1-arylpyrazoles” (Rhone-Poulenc Inc., priority 1997, dated 2002).
